In PubChem BioAssay AID1918998 (Molecular Pharmacology Branch, DTP, NCI, 2023):

System: 521955-158-R2-J5-PDC complex spheroid growth
Experiment: Anticancer human tumor 521955-158-R2-J5-PDC patient-derived pancreatic carcinoma cell line growth inhibition [AhR]
Settings: for IC50: curve of first compound; for viability, T/C: stronger effect = lower value
Outline: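 Spheroids combined tumor cells with HUVEC endothelial cells and human MSCs as stroma. AhR antagonists were paired with standard or investigational drugs, each dosed in half-log steps down from near clinical Cmax, or from 10 microM where Cmax was unknown.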

[1] = second compound 0.1 µM, first compound 0.0316 µM
[2] = second compound 0.1 µM, first compound 0.1 µM
[3] = second compound 0.1 µM, first compound 0.316 µM
[4] = second compound 0.1 µM, first compound 1 µM
[5] = second compound 0.316 µM, first compound 0.0316 µM
[6] = second compound 0.316 µM, first compound 0.1 µM
[7] = second compound 0.316 µM, first compound 0.316 µM
[8] = second compound 0.316 µM, first compound 1 µM
[9] = second compound 1 µM, first compound 0.0316 µM
[10] = second compound 1 µM, first compound 0.1 µM
[11] = second compound 1 µM, first compound 0.316 µM
[12] = second compound 1 µM, first compound 1 µM
[13] = second compound 3.16 µM, first compound 0.0316 µM
[14] = second compound 3.16 µM, first compound 0.1 µM
[15] = second compound 3.16 µM, first compound 0.316 µM
[16] = second compound 3.16 µM, first compound 1 µM
[17] = second compound 10 µM, first compound 0.0316 µM
[18] = second compound 10 µM, first compound 0.1 µM
[19] = second compound 10 µM, first compound 0.316 µM
[20] = second compound 10 µM, first compound 1 µM
[21] = second compound 0.1 µM, first compound 3.16 µM
[22] = second compound 0.1 µM, first compound 10 µM
[23] = second compound 0.316 µM, first compound 3.16 µM
[24] = second compound 0.316 µM, first compound 10 µM
[25] = second compound 1 µM, first compound 3.16 µM
[26] = second compound 1 µM, first compound 10 µM
[27] = second compound 3.16 µM, first compound 3.16 µM
[28] = second compound 3.16 µM, first compound 10 µM
[29] = second compound 10 µM, first compound 3.16 µM
[30] = second compound 10 µM, first compound 10 µM
[31] = second compound 0.1 µM, first compound 0.00949 µM
[32] = second compound 0.1 µM, first compound 0.03 µM
[33] = second compound 0.1 µM, first compound 0.0949 µM
[34] = second compound 0.1 µM, first compound 0.3 µM
[35] = second compound 0.316 µM, first compound 0.00949 µM
[36] = second compound 0.316 µM, first compound 0.03 µM
[37] = second compound 0.316 µM, first compound 0.0949 µM
[38] = second compound 0.316 µM, first compound 0.3 µM
[39] = second compound 1 µM, first compound 0.00949 µM
[40] = second compound 1 µM, first compound 0.03 µM
[41] = second compound 1 µM, first compound 0.0949 µM
[42] = second compound 1 µM, first compound 0.3 µM
[43] = second compound 3.16 µM, first compound 0.00949 µM
[44] = second compound 3.16 µM, first compound 0.03 µM
[45] = second compound 3.16 µM, first compound 0.0949 µM
[46] = second compound 3.16 µM, first compound 0.3 µM
[47] = second compound 10 µM, first compound 0.00949 µM
[48] = second compound 10 µM, first compound 0.03 µM
[49] = second compound 10 µM, first compound 0.0949 µM
[50] = second compound 10 µM, first compound 0.3 µM
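Wherever viability, T/C is given: spheroids mix tumor cells with HUVEC endothelium and human MSC stroma; luminescence taken as viability surrogate after a week of drug exposure.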

`CC1COCCN1c1cc(-c2ccnn2C)c2ccnc(-c3ccn[nH]3)c2n1` (stereo not given) + Cc1ccccc1N=Nc1ccc(NC(=O)c2ccnn2C)c(C)c1 gave an IC50 (second compound 0.1 µM) of 0.149 µM, an IC50 (second compound 0.316 µM) of 0.154 µM and an IC50 (second compound 1 µM) of 0.152 µM. The IC50 (second compound 3.16 µM) was 0.143 µM, the IC50 (second compound 10 µM) was 0.101 µM and the viability, T/C (second compound 0.1 µM, first compound 0.00316 µM) was 128%. It also gave a viability, T/C (second compound 0.1 µM, first compound 0.01 µM) of 116%, a viability, T/C [1] of 122% and a viability, T/C [2] of 66.6%. For the same compound, the viability, T/C [3] was 19.4%, the viability, T/C [4] was 17.9% and the viability, T/C (second compound 0.316 µM, first compound 0.00316 µM) was 122%. The viability, T/C (second compound 0.316 µM, first compound 0.01 µM) was 116%, the viability, T/C [5] was 127% and the viability, T/C [6] was 70%. For the same compound, the viability, T/C [7] was 17.9%, the viability, T/C [8] was 15.2% and the viability, T/C (second compound 1 µM, first compound 0.00316 µM) was 123%. The viability, T/C (second compound 1 µM, first compound 0.01 µM) was 138%, the viability, T/C [9] was 109% and the viability, T/C [10] was 71%. The viability, T/C [11] was 14.2%, the viability, T/C [12] was 13.8% and the viability, T/C (second compound 3.16 µM, first compound 0.00316 µM) was 144%. For the same compound, the viability, T/C (second compound 3.16 µM, first compound 0.01 µM) was 131%, the viability, T/C [13] was 145% and the viability, T/C [14] was 66.4%. For the same compound, the viability, T/C [15] was 13.4%, the viability, T/C [16] was 14.2% and the viability, T/C (second compound 10 µM, first compound 0.00316 µM) was 134%. For the same compound, the viability, T/C (second compound 10 µM, first compound 0.01 µM) was 154%, the viability, T/C [17] was 108% and the viability, T/C [18] was 54.5%. It also gave a viability, T/C [19] of 12.4% and a viability, T/C [20] of 15.4%.

With `CC1COCCN1c1cc(C2(S(C)(=N)=O)CC2)nc(-c2ccnc3[nH]ccc23)n1` (stereo not given) + Cc1ccccc1N=Nc1ccc(NC(=O)c2ccnn2C)c(C)c1 the IC50 (second compound 0.1 µM) was 2.05 µM, the IC50 (second compound 0.316 µM) was 2.36 µM and the IC50 (second compound 1 µM) was 2.54 µM. The IC50 (second compound 3.16 µM) was 2.52 µM, the IC50 (second compound 10 µM) was 2.55 µM and the viability, T/C [1] was 93.3%. For the same compound, the viability, T/C [2] was 84.7%, the viability, T/C [3] was 86.6% and the viability, T/C [4] was 86.2%. For the same compound, the viability, T/C [21] was 28.1%, the viability, T/C [22] was 15.9% and the viability, T/C [5] was 104%. The viability, T/C [6] was 112%, the viability, T/C [7] was 100% and the viability, T/C [8] was 101%. It also gave a viability, T/C [23] of 32.8%, a viability, T/C [24] of 14% and a viability, T/C [9] of 117%. For the same compound, the viability, T/C [10] was 110%, the viability, T/C [11] was 136% and the viability, T/C [12] was 109%. For the same compound, the viability, T/C [25] was 36.2%, the viability, T/C [26] was 14.8% and the viability, T/C [13] was 123%. For the same compound, the viability, T/C [14] was 135%, the viability, T/C [15] was 131% and the viability, T/C [16] was 120%. For the same compound, the viability, T/C [27] was 32.8%, the viability, T/C [28] was 15.5% and the viability, T/C [17] was 130%. It also gave a viability, T/C [18] of 149%, a viability, T/C [19] of 139% and a viability, T/C [20] of 124%. It also gave a viability, T/C [29] of 32.9% and a viability, T/C [30] of 16.1%.

`COc1ccc([C@@H](O)c2cc(-c3ncnc4cc(N5CCOCC5)ccc34)c(F)cc2Cl)nn1` + Cc1ccccc1N=Nc1ccc(NC(=O)c2ccnn2C)c(C)c1 was tested, and the IC50 (second compound 0.1 µM) was greater than 10 µM, the IC50 (second compound 0.316 µM) was greater than 10 µM and the IC50 (second compound 1 µM) was greater than 10 µM. For the same compound, the IC50 (second compound 3.16 µM) was greater than 10 µM, the IC50 (second compound 10 µM) was greater than 10 µM and the viability, T/C [1] was 116%. It also gave a viability, T/C [2] of 98.5%, a viability, T/C [3] of 75.9% and a viability, T/C [4] of 78.1%. It also gave a viability, T/C [21] of 67.1%, a viability, T/C [22] of 48.3% and a viability, T/C [5] of 98.8%. For the same compound, the viability, T/C [6] was 96.3%, the viability, T/C [7] was 93.5% and the viability, T/C [8] was 89.9%. It also gave a viability, T/C [23] of 72.8%, a viability, T/C [24] of 56.6% and a viability, T/C [9] of 109%. For the same compound, the viability, T/C [10] was 133%, the viability, T/C [11] was 108% and the viability, T/C [12] was 97.2%. For the same compound, the viability, T/C [25] was 84.4%, the viability, T/C [26] was 59% and the viability, T/C [13] was 139%. For the same compound, the viability, T/C [14] was 117%, the viability, T/C [15] was 128% and the viability, T/C [16] was 101%. It also gave a viability, T/C [27] of 91.3%, a viability, T/C [28] of 54.3% and a viability, T/C [17] of 142%. It also gave a viability, T/C [18] of 136%, a viability, T/C [19] of 142% and a viability, T/C [20] of 105%. The viability, T/C [29] was 88.9% and the viability, T/C [30] was 49.9%.

Work on `Nc1ncn(C2CC(O)C(CO)S2)c(=O)n1` (stereo not given) + Cc1ccccc1N=Nc1ccc(NC(=O)c2ccnn2C)c(C)c1 yielded an IC50 (second compound 0.1 µM) greater than 0.3 µM, an IC50 (second compound 0.316 µM) greater than 0.3 µM and an IC50 (second compound 1 µM) greater than 0.3 µM. It also gave an IC50 (second compound 3.16 µM) greater than 0.3 µM, an IC50 (second compound 10 µM) greater than 0.3 µM and a viability, T/C (second compound 0.1 µM, first compound 0.000949 µM) of 125%. For the same compound, the viability, T/C (second compound 0.1 µM, first compound 0.003 µM) was 103%, the viability, T/C [31] was 104% and the viability, T/C [32] was 104%. The viability, T/C [33] was 98%, the viability, T/C [34] was 73% and the viability, T/C (second compound 0.316 µM, first compound 0.000949 µM) was 92.9%. The viability, T/C (second compound 0.316 µM, first compound 0.003 µM) was 132%, the viability, T/C [35] was 107% and the viability, T/C [36] was 100%. The viability, T/C [37] was 80.5%, the viability, T/C [38] was 78.2% and the viability, T/C (second compound 1 µM, first compound 0.000949 µM) was 100%. For the same compound, the viability, T/C (second compound 1 µM, first compound 0.003 µM) was 146%, the viability, T/C [39] was 108% and the viability, T/C [40] was 91%. The viability, T/C [41] was 99.9%, the viability, T/C [42] was 102% and the viability, T/C (second compound 3.16 µM, first compound 0.000949 µM) was 135%. It also gave a viability, T/C (second compound 3.16 µM, first compound 0.003 µM) of 145%, a viability, T/C [43] of 125% and a viability, T/C [44] of 130%. It also gave a viability, T/C [45] of 105%, a viability, T/C [46] of 109% and a viability, T/C (second compound 10 µM, first compound 0.000949 µM) of 176%. The viability, T/C (second compound 10 µM, first compound 0.003 µM) was 170%, the viability, T/C [47] was 157% and the viability, T/C [48] was 139%. The viability, T/C [49] was 125% and the viability, T/C [50] was 127%.

Work on `O=C(C=Cn1cnc(-c2cc(C(F)(F)F)cc(C(F)(F)F)c2)n1)NNc1cnccn1` + Cc1ccccc1N=Nc1ccc(NC(=O)c2ccnn2C)c(C)c1 yielded an IC50 (second compound 0.1 µM) of 0.0401 µM, an IC50 (second compound 0.316 µM) of less than 0.00949 µM and an IC50 (second compound 1 µM) of 0.0185 µM. The IC50 (second compound 3.16 µM) was less than 0.00949 µM, the IC50 (second compound 10 µM) was 0.14 µM and the viability, T/C [31] was 59%. The viability, T/C [32] was 50.4%, the viability, T/C [33] was 41.2% and the viability, T/C [34] was 39.5%. For the same compound, the viability, T/C (second compound 0.1 µM, first compound 0.949 µM) was 40.2%, the viability, T/C (second compound 0.1 µM, first compound 3 µM) was 21.5% and the viability, T/C [35] was 54.8%. The viability, T/C [36] was 43.1%, the viability, T/C [37] was 39.3% and the viability, T/C [38] was 46.1%. The viability, T/C (second compound 0.316 µM, first compound 0.949 µM) was 40.8%, the viability, T/C (second compound 0.316 µM, first compound 3 µM) was 24.6% and the viability, T/C [39] was 55.8%. It also gave a viability, T/C [40] of 42.6%, a viability, T/C [41] of 45.1% and a viability, T/C [42] of 36.2%. The viability, T/C (second compound 1 µM, first compound 0.949 µM) was 38.4%, the viability, T/C (second compound 1 µM, first compound 3 µM) was 31.8% and the viability, T/C [43] was 53.8%. For the same compound, the viability, T/C [44] was 51.4%, the viability, T/C [45] was 47.6% and the viability, T/C [46] was 40.8%. For the same compound, the viability, T/C (second compound 3.16 µM, first compound 0.949 µM) was 50.2%, the viability, T/C (second compound 3.16 µM, first compound 3 µM) was 29.8% and the viability, T/C [47] was 91%. For the same compound, the viability, T/C [48] was 66.2%, the viability, T/C [49] was 47.6% and the viability, T/C [50] was 53.4%. It also gave a viability, T/C (second compound 10 µM, first compound 0.949 µM) of 38.2% and a viability, T/C (second compound 10 µM, first compound 3 µM) of 32.9%.
